These results are taken from patent publication US12458622B2, “Methods of treatment of coronavirus-induced inflammation conditions” (priority 2020, dated 2025).

Experiment [1] relates to HMC3 human microglia cells. In words: Cell viability assay by AO/PI stain. The class given is cell-based. The conditions noted are these: for microglia death: 300 ng/mL, 24 hr. The protocol: (§1) Human microglial cell line HMC3 (CRL-3304) was purchased from ATCC (American Type Culture Collection). HMC3 cell line was cultured in DMEM medium with 10% FBS, 1% L-glutamine, and 1% penicillin/streptomycin. Cells were maintained in 37° C. incubator at 5% CO2.
(§2) HMC3 cells were resuspended, counted using the LUNA-II Automated Cell Counter, seeded in the 6-well plate (300 K cells/2 mL medium/well), and incubated overnight to allow cells to attach. Cells were treated with TNF-α or IFN-γ at five different concentrations (0, 10, 30, 100, 300 ng/mL) for 24 hr to induce cell activation. The supernatant medium was completely aspirated and 1 mL of fresh DMEM was added to wash the cell layer to remove detached cells and debris. The attached cells were resuspended and washed with PBS. Cells were washed with FACS buffer (2% FBS in PBS) prior to incubation with Zombie Violet Fixable Viability Dye (#423114, Biolegend, 1:500 dilution) and Human Fe Receptor Blocking Solution (#422302, Biolegend, 1:20) diluted in FACS buffer at RT for 10 min in the dark. Cells were then washed with FACS buffer and incubated at RT for 20 min with the following cell-surface antibodies: FITC anti-MHC II (#361706, Biolegend), PerCP/Cy5.5 anti-CD11b (#301328, Biolegend), BV605 anti-CD40 (#334336, Biolegend), PE anti-CD86 (#374206, Biolegend), PE/Cy7 anti-CD163 (#326514, Biolegend), APC anti-CD206 (#321110, Biolegend), and PerCP/Cy5.5 anti-CD14 (#367110, Biolegend). All of the cell-surface antibodies were diluted 1:20 in FACS buffer. Cells were permeabilized using the Transcription Factor Fixation/Permeabilization Buffer Set (#424401, Biolegend). Then cells were incubated with the following intracellular antibodies: APC/Cy7 anti-CD68 (#333822, Biolegend), purified anti-IBA1 (#PA5-27436, Invitrogen), Goat anti-Rabbit-Alexa Fluor 647 (#A21245, Invitrogen), purified anti-GFAP (#644702, Biolegend), and Goat anti-Mouse-Alexa Fluor 488 (#11029, Invitrogen). All of the intracellular antibodies were diluted 1:100 in the Permeabilization buffer (lx). Cells were washed with Permeabilization buffer and fixed in Fixation Buffer (#420801, Biolegend). Flow cytometry was performed using the Attune NxT Acoustic Focusing Cytometer (Thermo Fisher Scientific). Analysis of flow cytometry data was performed via FCS Express 7 (DeNovo Software).
Cell viability was assessed with a LUNA-FL Automated fluorescence cell counter. Viable nucleated cells show green fluorescence and dying nucleated cells show red fluorescence. 18 µL of sample was mixed with 2 μL Acridine Orange/Propidium Iodide (AO/PI) Stain.
(§3) All the data were presented as mean±standard error from at least three times, each done in triplicate. The statistical significance between two groups was determined by Student's t test, whereas the comparisons of multiple groups were carried out by one-way ANOVA, followed by Bonferroni's post-test using GraphPad Prism 7 (GraphPad Software, Inc.). A probability value of * p<0.05 was considered to be significant.

Experiment [2] has as its system HMC3 human microglia cells. In words: MSD U-PLEX cytokine secretion induced by TNF-α. The class given is cell-based. On the set-up: increase in IL-1β secretion compared to untreated HMC3 cells / increase in IL-6 secretion compared to untreated HMC3 cells / increase in IL-8 secretion compared to untreated HMC3 cells / IFN-γ secretion: dose or concentration left out as unconfirmed. To be noted: for inhibition at 3 µM: Homo sapiens, HMC3. The protocol: as §1
(§4) HMC3 cells were resuspended, counted using the LUNA-II Automated Cell Counter, seeded in the 6-well plate (400 K cells/2 mL medium/well), and incubated overnight to allow cells to attach. The media and detached cells were removed next day. The cell layer was washed three times in PBS and once in serum- and phenolred-free DMEM (SPFM). […] The conditioned medium was collected and centrifuged at 1,000×RCF (g) for 5 min to pellet detached cells and large debris, which was subsequently passed through a 0.22 μm filter with PVDF membrane to remove smaller debris. Samples of the supernatant medium were put in a CoolRack (#07210041, Fisher Scientific) on dry ice for Snap-freezing and kept at −80° C. until use.
(§5) Meso-scale U-PLEX plates that detect a cytokine panel including IL-1β, IL-2, IL-4, IL-6, IL-8, IL-10, IFN-γ, TNF-α, and a chemokine panel including IP-10/CXCL10, MCP-1/CCL2, MIP-1α/CCL3, MIP-1P/CCL4, Eotaxin/CCL11, were used as per manufacture's protocol. 25 μL of the conditioned medium was used in each well of the MSD plates to detect the analytes. The plates were then analyzed on an MSD QuickPlex SQ120 instrument.
as §3

The subject of experiment [3] is HMC3 human microglia cells. In words: MSD U-PLEX chemokine secretion induced by TNF-α. The class given is cell-based. To be noted: 0.3 μg/mL TNF-α, 24 hours; for inhibition at 3 µM: Homo sapiens, HMC3. The protocol: as §1, §4, §5, §3
For experiment [4], the system named is HMC3 human microglia cells. The experiment is described as follows: Flow cytometry of microglia activation biomarkers. To be noted: 300 ng/mL, 24 hr. It is filed as cell-based. The protocol: as §1
as §2, with “Cells were washed with Permeabilization buffer and fixed in Fixation Buffer (#420801, Biolegend). Flow cytometry was performed using the Attune NxT Acoustic Focusing Cytometer (Thermo Fisher Scientific). Analysis of flow cytometry data was performed via FCS Express 7 (DeNovo Software).” left out

The test system of a further experiment is H5N1 virus. To be noted: after H5N1 virus infection; cited from earlier work.

The term inhibition denotes the share of the control response that was lost under treatment.

Some results are limits rather than exact numbers.

Turning to `O=C(O)c1cc(=O)c2c(OCC(F)COc3cccc4oc(C(=O)O)cc(=O)c34)cccc2o1` [F-cromolyn], in experiment [1] (0.3 μM, TNF-α 0.3 μg/mL), the “TNF-α induced cell death” value is listed as “significantly reduced cell death”. For the same compound, the IFN-γ concentration entry in experiment [2] (0.3 μM, TNF-α induced, 24 hr) is reported as “decreased”. Besides, in experiment [2] (0.3 μM, TNF-α induced, 24 hr), the IL-1β concentration result was “decreased”. Moreover, the IL-6 concentration result in experiment [2] (0.3 μM, TNF-α induced, 24 hr) is “decreased”. Further, in experiment [2] (0.3 μM, TNF-α induced, 24 hr), the IL-8 concentration result is on record as “decreased”. Moreover, the inhibition at 3 µM was > 50% in experiment [2] (TNF-α induced, 24 hr, read-out: inhibition of IFN-γ); > 50% in experiment [2] (TNF-α induced, 24 hr, read-out: inhibition of IL-1β); 39.8% in experiment [2] (TNF-α induced, 24 hr, read-out: inhibition of IL-6); 27.9% in experiment [2] (TNF-α induced, 24 hr, read-out: inhibition of IL-8); > 40% in experiment [3] (read-out: inhibition of IP-10 (CXCL10)); > 40% in experiment [3] (read-out: inhibition of MCP-1 (CCL2)). Further, the results for the inhibition at 3 µM in experiment [3] (read-out: inhibition of MIP-1α (CCL3)) and in experiment [3] (read-out: inhibition of MIP-1β (CCL4)) were 36% and > 40%, respectively. Moreover, the “extracellular IP-10 (CXCL10)” value in experiment [3] (0.3 μM) is reported as “can inhibit”. For the same compound, the “extracellular MCP-1 (CCL2)” value in experiment [3] (0.3 μM) is recorded as “can inhibit”. Besides, the “extracellular MIP-1α (CCL3)” value in experiment [3] (0.3 μM) is on record as “can inhibit”. In addition, the “extracellular MIP-1β (CCL4)” value in experiment [3] (0.3 μM) is on record as “can inhibit”.
In experiment [1], TNF-α returned a microglia death of 15.6%. Moreover, the “cell death, share of the total population” value in experiment [1] (TNF-α 0.3 μg/mL) was “approximately 20%”. In addition, in experiment [2] (24 hours), the IFN-γ secretion result was “caused the previously quiescent cells to secrete IFN-γ”, the “increase in IL-1β secretion compared to untreated HMC3 cells” value is reported as > 177 fold, the “increase in IL-6 secretion compared to untreated HMC3 cells” value is listed as > 177 fold and the “increase in IL-8 secretion compared to untreated HMC3 cells” value is > 177 fold. Further, in experiment [4], the “expression of inflammatory microglia biomarkers” value is “increases the expression”.
In the case of `CN1CCC(=C2c3ccccc3CC(=O)c3sccc32)CC1` [ketotifen], the lung injury result with H5N1 virus was “improved”.
For “IFN-γ: recombinant human IFN-γ, used to activate HMC3 microglia”, the microglia death in experiment [1] is 19.7%. Also, in experiment [4], the “expression of anti-inflammatory microglia biomarkers (CD163 and CD206)” value is given as “no alteration”; the “expression of inflammatory microglia biomarkers” value was “increased protein expression”.
